Laboratory results from US4124598A, “Psoralens” (Hoffmann-La Roche Inc., priority 1976, dated 1978).
Counter-ions that a name gives are not always drawn.

Legend:
DNA (calf thymus) [1] = test: Low intensity photoaddition (covalent binding) to DNA; details: for A (footnote 1, shown as drawing 9) / B = percent of added psoralen covalently bound: 25 μg/ml DNA, psoralen:base pair 1:3; for moles of psoralen bound per mole of base pairs: 90 minutes irradiation
Procedure: (§1) The covalent binding of the psoralens to DNA and RNA was studied. To achieve covalent binding, it is necessary to supply radiant energy (light) to the binding sites. These studies were carried out as follows:
(§2) The DNA and RNA used in the covalent binding studies have been described previously. Samples of each nucleic acid were prepared at a concentration of 25 ug/ml in 0.01 m Tris 0.001 M EDTA buffer. The radioactive-psoralen derivatives were added in a ratio of one psoralen for every three base pairs. The irradiation was carried out in one of the two following devices.
The low intensity irradiations were performed with a modified slide projector which was fitted with a 400 watt General Electric mercury vapor lamp (H 400 A 33-1/T16). The image of the arc was focused on the same cell, jacketed by a cobaltous nitrate solution which was also used for the high intensity irradiations. The light intensity delivered to the sample in this device was 4 to 6 mw/cm^2. The high intensity irradiations were carried out in a device containing two of the sam 400 watt General Electric mercury vapor lamps which were mounted on either side of a double walled sample chamber at a distance between centers of 4.0 cm. The chamber was cooled to 10° C. by continuous circulation of a temperature regulated solution of cobaltous nitrate (40% w/w). The cobalt solution served as an ultraviolet filter which allowed a maximum transmittance of 365 nm light and a window from approximately 340-380 nm. The intensity of the light at the surface of the inner sample chamber was approximately 100 mw/cm^2. The nucleic acid-psoralen mixture was placed in the inner chamber where it was continuously stirred throughout the irradiation. […] Each aliquot was then extracted twice with chloroform/iso-amyl alcohol (24:1) to remove unreacted psoralen followed by exhaustive dialysis against 0.01 M Tris, 0.001 M EDTA buffer. The successful extraction of unbound psoralen by the chloroform-isoamyl alcohol required the aqueous phase to be at least 0.15 M in NaCl. Finally, the optical density of the nucleic-acid psoralen mixture was taken and its radioactivity determined, thus giving the amount of derivative covalently bound to the DNA or RNA. Taking samples, at spaced time intervals also permitted an assessment of the kinetics of the covalent binding.

[2] = molecular target: Drosophila melanogaster ribosomal RNA; test: Equilibrium dialysis, non-covalent binding to RNA; details: for Kd: 0.01 M Tris, non-covalent binding; for (PS)/(S) for RNA in Saturated Solution: occupied/unoccupied binding sites
Procedure: (§3) In order to establish the dissociation constants from DNA and RNA, the non-covalent binding was ascertained. Non-covalent binding determines the presence of the psoralen within the nucleic acid helix. Its presence is determined in the absence of any radiant energy. As noted before, radiant energy is necessary to activate the psoralen covalent binding reaction with nucleic acid base pairs.
(§4) To determine the non-covalent binding, Calf thymus DNA (Sigma Type I) was dissolved in a 0.01 M Tris 0.001 M EDTA pH 8.5 buffer at a concentration of 25 ug/ml. A quantity of this DNA solution was placed in a dialysis bag (pretreated by boiling in NaHCO3), and the various tritiated derivatives were added inside the bag in half the cases and outside the bag in the other half. The molar ratio of psoralen molecules to base pairs was approximately 1:25. The bags were placed in vials filled with 18 ml of buffer and put on a shaker for 48-60 hours. After this period, radioactivity was determined both inside and outside the bags and the optical density of the DNA solution measured. From this information, and the specific activity of each derivative, the amount of drug non-covalently bound to the DNA was determined. Binding of the derivatives to Drosophila melanogaster ribosomal RNA was measured in exactly the same manner.
(§5) The units of the dissociation constants are moles/liter. Solubilities and molar extinction coefficients (ε) were obtained in pure water, the equilibrium constants (KD) in 0.01 M Tris.

[3] = tested on: vesicular stomatitis virus; assay type: cell-based, Vesicular stomatitis virus Indiana strain; details: for effectiveness in inactivation of vesicular stomatitis virus vs 4,5',8-trimethyl psoralen: high dose rates, e.g., 30 μg/ml
Calf thymus DNA = test: Equilibrium dialysis, non-covalent binding to DNA; details: for Kd: 0.01 M Tris, non-covalent binding; for (PS)/(S) for DNA in Saturated Solution: occupied/unoccupied binding sites
Procedure: as §3, §4, §5

Solubility in pure water = assay type: physicochemical; details: for solubility: pure water
Description: In order to study solubilities and dissociation constants, it is most convenient to prepare tritiated derivatives of the psoralen compounds. Thus, well-known radiation counting methods may be utilized to monitor the presence of the psoralens in solutions, or in nucleic acids.
as §5

DNA (calf thymus) [4] = test: High intensity photoaddition (covalent binding) to DNA; details: 25 μg/ml DNA, psoralen:base pair 1:3
Procedure: as §1, §2
(§6) The low intensity irradiations were performed with a modified slide projector which was fitted with a 400 watt General Electric mercury vapor lamp (H 400 A 33-1/T16). The image of the arc was focused on the same cell, jacketed by a cobaltous nitrate solution which was also used for the high intensity irradiations. The light intensity delivered to the sample in this device was 4 to 6 mw/cm^2. The high intensity irradiations were carried out in a device containing two of the sam 400 watt General Electric mercury vapor lamps which were mounted on either side of a double walled sample chamber at a distance between centers of 4.0 cm. The chamber was cooled to 10° C. by continuous circulation of a temperature regulated solution of cobaltous nitrate (40% w/w). The cobalt solution served as an ultraviolet filter which allowed a maximum transmittance of 365 nm light and a window from approximately 340-380 nm. The intensity of the light at the surface of the inner sample chamber was approximately 100 mw/cm^2. The nucleic acid-psoralen mixture was placed in the inner chamber where it was continuously stirred throughout the irradiation. Aliquots of each solution (derivative plus nucleic acid) were taken at 20, 40 and 60 minutes. Each aliquot was then extracted twice with chloroform/iso-amyl alcohol (24:1) to remove unreacted psoralen followed by exhaustive dialysis against 0.01 M Tris, 0.001 M EDTA buffer. The successful extraction of unbound psoralen by the chloroform-isoamyl alcohol required the aqueous phase to be at least 0.15 M in NaCl. Finally, the optical density of the nucleic-acid psoralen mixture was taken and its radioactivity determined, thus giving the amount of derivative covalently bound to the DNA or RNA. Taking samples, at spaced time intervals also permitted an assessment of the kinetics of the covalent binding.

[5] = tested on: RNA (Drosophila melanogaster ribosomal RNA); test: High intensity photoaddition (covalent binding) to RNA; details: 25 μg/ml RNA, psoralen:base pair 1:3
Procedure: as §1, §2, §6

[6] = Molar extinction coefficient in pure water; assay type: physicochemical
Description: as §5

DNA = test: Reactivity with DNA (general statement); assay type: binding, calf
Procedure: as §1, §2
as §6, with “Each aliquot was then extracted twice with chloroform/iso-amyl alcohol (24:1) to remove unreacted psoralen followed by exhaustive dialysis against 0.01 M Tris, 0.001 M EDTA buffer. The successful extraction of unbound psoralen by the chloroform-isoamyl alcohol required the aqueous phase to be at least 0.15 M in NaCl.” left out, “Taking samples, at spaced time intervals also permitted an assessment of the kinetics of the covalent binding.” left out

SMILES	rate of reaction with DNA / initial rate of photochemical binding (DNA (calf thymus) [1])	Kd [2] [µM]	(PS)/(S) for RNA in Saturated Solution [2]	Kd (Calf thymus DNA) [µM]	(PS)/(S) for DNA in Saturated Solution (Calf thymus DNA; saturated solution)	solubility (Solubility in pure water) [mg/mL]	solubility (Solubility in pure water; molar) [µM]	A (footnote 1, shown as drawing 10) (DNA (calf thymus) [4]; 20 min irradiation)	B = percent of added psoralen covalently bound (DNA (calf thymus) [4]; 20 min irradiation) [%]	A (footnote 1, shown as drawing 10) (DNA (calf thymus) [4]; 40 min irradiation)	B = percent of added psoralen covalently bound (DNA (calf thymus) [4]; 40 min irradiation) [%]	A (footnote 1, shown as drawing 10) (DNA (calf thymus) [4]; 60 min irradiation)	B = percent of added psoralen covalently bound (DNA (calf thymus) [4]; 60 min irradiation) [%]	A (footnote 1, shown as drawing 11) ([5]; 20 min irradiation)	B = percent of added psoralen covalently bound ([5]; 20 min irradiation) [%]	A (footnote 1, shown as drawing 11) ([5]; 40 min irradiation)	B = percent of added psoralen covalently bound ([5]; 40 min irradiation) [%]	A (footnote 1, shown as drawing 11) ([5]; 60 min irradiation)	B = percent of added psoralen covalently bound ([5]; 60 min irradiation) [%]	Extinction coefficient ε, 250 nm [6] [L/mol/cm]	further results
Cc1cc2cc3c(C)cc(=O)oc3c(C)c2o1 [trioxsalen, 4,5',8-trimethyl psoralen, reference compound]	greater initial rate of photochemical binding than 4'-hydroxymethyl trioxsalen	100	0.026	56	0.046	0.0006	2.6	11.6	25.9	10.6	28.3	12.2	24.6	23.1	13.0	21.6	13.9	20.6	14.8	18000	A (footnote 1, shown as drawing 9) (DNA (calf thymus) [1]; 5 min irradiation): 19.7; B = percent of added psoralen covalently bound (DNA (calf thymus) [1]; 5 min irradiation): 15.5%; A (footnote 1, shown as drawing 9) (DNA (calf thymus) [1]; 10 min irradiation): 15.5; B = percent of added psoralen covalently bound (DNA (calf thymus) [1]; 10 min irradiation): 19.7%; A (footnote 1, shown as drawing 9) (DNA (calf thymus) [1]; 30 min irradiation): 13.7; B = percent of added psoralen covalently bound (DNA (calf thymus) [1]; 30 min irradiation): 22.1%; A (footnote 1, shown as drawing 9) (DNA (calf thymus) [1]; 60 min irradiation): 12.8; B = percent of added psoralen covalently bound (DNA (calf thymus) [1]; 60 min irradiation): 23.6%; A (footnote 1, shown as drawing 9) (DNA (calf thymus) [1]; 90 min irradiation): 10.6; B = percent of added psoralen covalently bound (DNA (calf thymus) [1]; 90 min irradiation): 28.5%; moles of psoralen bound per mole of base pairs (DNA (calf thymus) [1]): 0.09 moles per mole of base pairs; effect of increasing concentration on ability to inactivate the virus ([3]; FIG. 1, from 10 μg/ml to 30 μg/ml): no effect on its ability to inactivate the virus; one psoralen per n base pairs at equilibrium (best achievable) (Calf thymus DNA; saturated solution): ~20 base pairs; times stronger binding to DNA than 4'-hydroxymethyl trioxsalen (Calf thymus DNA; vs 4'-hydroxymethyl trioxsalen (trioxsalen binding)): 5 times; times stronger binding to DNA than 4'-methoxymethyl trioxsalen (Calf thymus DNA; vs 4'-methoxymethyl trioxsalen): 2 times
Cc1oc2c(C)c3oc(=O)cc(C)c3cc2c1CN [4'-aminomethyl-4,5',8-trimethyl psoralen hydrochloride]	reacts with DNA much faster than trioxsalen	20	1700	6.6	5000	10	34000	4.7	63.8	4.8	62.5	4.8	62.5	5.1	59.4	5.3	57.2	5.3	57.3	25000	A (footnote 1, shown as drawing 9) (DNA (calf thymus) [1]; 5 min irradiation): 15.0; B = percent of added psoralen covalently bound (DNA (calf thymus) [1]; 5 min irradiation): 19.3%; A (footnote 1, shown as drawing 9) (DNA (calf thymus) [1]; 10 min irradiation): 10.5; B = percent of added psoralen covalently bound (DNA (calf thymus) [1]; 10 min irradiation): 27.4%; A (footnote 1, shown as drawing 9) (DNA (calf thymus) [1]; 30 min irradiation): 6.9; B = percent of added psoralen covalently bound (DNA (calf thymus) [1]; 30 min irradiation): 41.8%; A (footnote 1, shown as drawing 9) (DNA (calf thymus) [1]; 60 min irradiation): 5.9; B = percent of added psoralen covalently bound (DNA (calf thymus) [1]; 60 min irradiation): 48.7%; A (footnote 1, shown as drawing 9) (DNA (calf thymus) [1]; 90 min irradiation): 5.5; B = percent of added psoralen covalently bound (DNA (calf thymus) [1]; 90 min irradiation): 52.4%; moles of psoralen bound per mole of base pairs (DNA (calf thymus) [1]): 0.18 moles per mole of base pairs; molecules in the solution covalently bound to DNA (DNA (calf thymus) [1]; after 90 minutes of irradiation): over half; inactivation of vesicular stomatitis virus, comparison in words ([3]; FIG. 2, 1-3 μg/ml, long wavelength UV): undisputed superiority; effectiveness in inactivation of vesicular stomatitis virus vs 4,5',8-trimethyl psoralen [3]: nearly one thousand times more effective; times more effective at reaching state of site saturation (Calf thymus DNA; calculated, DNA): 10^4 times; times more strongly binding than 4'-hydroxymethyl trioxsalen (Calf thymus DNA; vs 4'-hydroxymethyl trioxsalen): about 100 times; times more strongly binding to DNA than trioxsalen (Calf thymus DNA; vs trioxsalen): about 8 times; times more soluble than 4'-hydroxymethyl trioxsalen (Solubility in pure water; vs 4'-hydroxymethyl trioxsalen): 150 times; reactivity with DNA (DNA): excellent reactivity with DNA
COCc1c(C)oc2c(C)c3oc(=O)cc(C)c3cc12 [4'-methoxymethyl-4,5',8-trimethyl psoralen]		1000	0.037	94	0.39	0.01	37	14.1	21.3	14.3	21.0	13.8	21.7	264.2	1.2	216.8	1.4	183.4	1.6	21000	effectiveness in inactivation of vesicular stomatitis virus vs 4,5',8-trimethyl psoralen [3]: nearly one thousand times more effective; DNA site saturation, one psoralen per base pairs (Calf thymus DNA; saturated solution, expected from KD and solubility): one psoralen per three base pairs; (PS)/(S) for DNA in Saturated Solution (Calf thymus DNA; saturated solution, listed as 4'-methoxymethyl trioxsalen): 0.5; times more strongly binding to DNA than methoxsalen (Calf thymus DNA; vs methoxsalen): 10 times; reactivity with DNA (DNA): excellent reactivity with DNA
